Entries after “also recorded” stand apart in the source; their conditions may differ. Marks after values point to notes of the source that are not given here.
What was measured:
[1] = system: premenopausal women with uterine fibroids; test: Phase 2a trial of Elagolix with or without add-back in uterine fibroids with heavy menstrual bleeding; assay type: in vivo, human; conditions: for Percent of subjects achieving composite bleeding endpoint (MBL <80 mL at Final Month and ≥50% reduction in MBL from baseline, AH method): last 28 days of treatment, placebo 30%; for Percent of subjects with ≥25% reduction in uterine volume: placebo 9%; for Percent of subjects with ≥25% reduction in fibroid volume: placebo 29%; for Average Total Blood Loss Measured by AH Method During Treatment: 3 months of treatment, placebo 569.7; for Average Total MBL in Days 66-95 Post-Baseline: placebo 190.3; for Average total MBL from days 6-35 post-baseline: placebo 190.5; for Average Total MBL from Days 36-65 Post-Baseline: placebo 194.6
Description: Methods for analyzing menstrual blood loss are known in the art and include, for example, the alkaline hematin method. The alkaline hematin method is based on the quantitation of menstrual blood collected on sanitary products (Hallberg L., Nilsoon L., Determination of Menstrual Blood Loss. Scand. J. Clin. Lab. Invest., 1964; 16:244-248). The method uses a strong alkaline solution to chemically convert the heme from bloodstained sanitary products to alkaline hematin, which is measured colorimetrically. When compared to a subject's serum hemoglobin (Hgb), the volume of blood loss in the menstrual products can be determined. […] The study involved the following six (6) cohorts: Cohort 1: […] Cohort 2: Elagolix 300 mg BID or placebo. Cohort 3: […] Cohort 4: […] Cohort 6: […] There are a number of efficacy endpoints, but a composite endpoint consisting of two bleeding assessments was used to assess one measure of efficacy. […] Eighty-five percent (85%), 97%, and 30% of subjects achieved the composite bleeding assessment endpoint in the 200 mg BID, 300 mg BID, and placebo groups, respectively (P<0.05 for 200 mg BID versus placebo in cohort 1, and 300 mg BID versus placebo in cohort 2). […] Quality of life (QoL) measures were also determined using the “Responsiveness of the uterine fibroid symptom and health-related quality of life questionnaire” (UFS-QOL) (Harding, Gale, Coyne Karin S., Thompson Christine L., Spies James B, United BioSource Corporation, 7101 Wisconsin Avenue, Suite 600, Bethesda, Md., 20814, USA, Health and Quality Life Outcomes, 2008, 6, page 99).

healthy women = test: 3-menstrual cycle study in healthy women; assay type: in vivo, human
[2] = Pharmacokinetic properties of ELAGOLIX in healthy subjects; assay type: in vivo, human; conditions: for AUC: plasma; for AUC / Cmax: steady state, mean
[3] = Binding to human plasma proteins; assay type: in vitro ADME; conditions: read-out: % Bound to human plasma proteins (converted)
[4] = Pharmacokinetics in specific populations (renal, hepatic impairment); assay type: in vivo, human; conditions: for Elagolix exposures in severe hepatic impairment relative to normal hepatic function: severe hepatic impairment (Child-Pugh C)
Description: The mean exposures are similar for women with moderate to severe or end stage renal disease (including women on dialysis) compared to women with normal renal function.
Elagolix exposures (Cmax and AUC) are similar between women with normal hepatic function and women with mild hepatic impairment. Elagolix exposures in women with moderate and severe hepatic impairment are approximately 3-fold and 7-fold, respectively, of exposures from women with normal hepatic function.

mice = test: 2-year carcinogenicity study in mice; assay type: in vivo; conditions: mouse; any dose
rats [5] = test: Fertility study and repeat-dose study in rats; assay type: in vivo
Description: (§1) Based on pharmacologic actions of elagolix in humans a reversible effect on fertility may be expected in women.

monkeys = test: Repeat-dose study in monkeys; assay type: in vivo; conditions: 75, 150, 300 and 600 mg/kg/day, all doses
Description: as §1

rats [6] = test: Lactation study in rats (secretion in milk); assay type: in vivo
Description: Pregnant rats were given diet containing elagolix throughout the gestation and lactation periods to achieve a daily elagolix dose of 400 mg/kg. During nursing the dams and litters were divided into restricted feeding and non-restricted groups to determine whether elagolix was secreted in the mother's milk. […] In pups of the non-restricted feeding group, elagolix plasma concentrations were measurable and approximately 1% of the mother's plasma concentrations.

[7] = system: premenopausal women with endometriosis with associated pain; test: Phase 3 Study EM-I (and extension EM-III); assay type: in vivo, human; conditions: for Proportion of responders for Dyspareunia (Daily Endometriosis Pain Impact Scale) / Proportion of responders for dysmenorrhea (Daily Endometriosis Pain Impact Scale) / Proportion of responders for Non-Menstrual Pelvic Pain (Daily Endometriosis Pain Impact Scale): EM-I
Description: Each placebo-controlled study assessed the reduction in endometriosis-associated pain over 6 months of treatment. More than 75 percent of women who completed Study EM-I and EM-II enrolled in the extension studies for an additional 6 month treatment period. Subjects were followed for up to 12 months post-treatment. The co-primary efficacy endpoints were the proportion of responders for dysmenorrhea and pelvic pain not related to menses (also known as non-menstrual pelvic pain [NMPP]) at Month 3 compared to placebo. The primary analysis independently evaluated these endpoints using a daily diary that asked patients to assess their pain and its impact on their daily activities, over the previous 24 hours. […] Women were defined as responders if they experienced clinically meaningful reduction in dysmenorrhea and/or NMPP with no increased analgesic use for endometriosis associated pain. Dyspareunia was evaluated as a secondary endpoint using the Daily Endometriosis Pain Impact Scale. Endometrial biopsies were performed in subjects in Study EM-I and its extension at Month 6 and Month 12.

[8] = 100 BID, screening 276.4 mL per cycle
[9] = 200 BID, screening 287.4 mL per cycle
[10] = 300 BID, screening 224.8 mL per cycle
[11] = 400 QD, screening 220.3 mL per cycle
[12] = 600 QD, screening 228.7 mL per cycle

## COc1cccc(-c2c(C)n(Cc3c(F)cccc3C(F)(F)F)c(=O)n(C[C@H](NCCCC(=O)O)c3ccccc3)c2=O)c1F [Elagolix, 4-((R)-2-[5-(2-fluoro-3-methoxy-phenyl)-3-(2-fluoro-6-trifluoromethyl-benzyl)-4-methyl-2,6-dioxo-3,6-dihydro-2H-pyrimidin-1-yl]-1-phenyl-ethylamino)-butyric acid]
[1]; 200 mg BID
  Percent of subjects achieving composite bleeding endpoint (MBL <80 mL at Final Month and ≥50% reduction in MBL from baseline, AH method): 85%
  Percent of subjects with ≥25% reduction in uterine volume: 50%
  Percent of subjects with ≥25% reduction in fibroid volume: 63%
[1]; 300 mg BID without add-back therapy
  Inhibition of bleeding: maximum inhibition of bleeding (most of women achieved amenorrhea)
[1]; 300 mg BID, 400 mg QD and 600 mg QD without add-back
  Women who reported an adverse event of hot flash: 50-62.5%
[1]; 300 mg BID, compared with other Elagolix treatments
  Effect on uterine and fibroid volumes (FIG. 4): showed the strongest effects
[1]; 300 mg BID
  Percent of subjects achieving composite bleeding endpoint (MBL <80 mL at Final Month and ≥50% reduction in MBL from baseline, AH method): 97%
  Percent of subjects with ≥25% reduction in uterine volume: 68%
  Percent of subjects with ≥25% reduction in fibroid volume: 55%
[1]; 400 mg QD and 600 mg QD
  Inhibition of bleeding compared with 300 mg BID: slightly less effective
[1]; 100 BID, N = 26
  Average Total Blood Loss Measured by AH Method During Treatment: 198.4 mL
[1]; [8]
  Average Total MBL in Days 66-95 Post-Baseline: 65.4 mL
  Average total MBL from days 6-35 post-baseline: 33.2 mL
  Average Total MBL from Days 36-65 Post-Baseline: 100.9 mL
[1]; 200 BID, N = 28
  Average Total Blood Loss Measured by AH Method During Treatment: 47.0 mL
[1]; [9]
  Average Total MBL in Days 66-95 Post-Baseline: 41.5 mL
  Average total MBL from days 6-35 post-baseline: 0 mL
  Average Total MBL from Days 36-65 Post-Baseline: 5.5 mL
[1]; 300 BID, N = 26
  Average Total Blood Loss Measured by AH Method During Treatment: 4.3 mL
[1]; [10]
  Average Total MBL in Days 66-95 Post-Baseline: 4.3 mL
  Average total MBL from days 6-35 post-baseline: 0 mL
  Average Total MBL from Days 36-65 Post-Baseline: 0 mL
[1]; 400 QD, N = 26
  Average Total Blood Loss Measured by AH Method During Treatment: 38.4 mL
[1]; [11]
  Average Total MBL in Days 66-95 Post-Baseline: 21.6 mL
  Average total MBL from days 6-35 post-baseline: 14.9 mL
  Average Total MBL from Days 36-65 Post-Baseline: 12.4 mL
[1]; 600 QD, N = 24
  Average Total Blood Loss Measured by AH Method During Treatment: 69.6 mL
[1]; [12]
  Average Total MBL in Days 66-95 Post-Baseline: 14.9 mL
  Average total MBL from days 6-35 post-baseline: 27.6 mL
  Average Total MBL from Days 36-65 Post-Baseline: 35.0 mL
Healthy women; 150 mg QD
  Ovulation rate: approximately 50%
Healthy women; 150 mg QD and 200 mg BID, compared to pretreatment values
  Mean endometrial thickness (transvaginal ultrasound): dose dependent decrease in the mean endometrial thickness
Healthy women; 200 mg BID
  Ovulation rate: ~32%
[2]; healthy subjects
  Tmax: 1.0 h
[2]; human, blood and plasma
  blood plasma ratio: 0.6
[2]; human, in vivo
  Major route of elimination: Hepatic metabolism
  Metabolism, minor pathways: glucuronosyltransferases (UGTs)
[2]; human, in vivo, oral, healthy subjects, read-out: Terminal phase elimination half-life (t½)
  half-life: 4 to 6 h
[2]; human, in vivo, listed as ELAGOLIX
  Metabolism, minor pathways: Minor pathways include: CYP2D6,; also recorded: CYP2C8, and uridine
[2]; human, oral, 150 mg QD, τ 24 hours, % CV 31
  AUC: 1.29 µg·h/mL
[2]; human, oral, 200 mg BID, τ 12 hours, % CV 57
  AUC: 1.73 µg·h/mL
[2]; major pathway
  Metabolism: CYP3A (major)
[2]; 150 mg QD, % CV 29
  Cmax: 0.574 µg/mL
[2]; 200 mg BID, % CV 68
  Cmax: 0.774 µg/mL
[3]
  fraction unbound: 0.2
[4]; moderate hepatic impairment (Child-Pugh B)
  Elagolix exposures in moderate hepatic impairment relative to normal hepatic function: approximately 3 fold
[4]; moderate to severe or end stage renal disease vs normal renal function
  Elagolix exposures (Cmax and AUC) in renal impairment: not altered by renal impairment
[4]
  Elagolix exposures in severe hepatic impairment relative to normal hepatic function: ~7 fold
[4]; listed as elagolix
  Elagolix exposures in severe hepatic impairment relative to normal hepatic function: approximately 7 fold
[4]; vs women with normal hepatic function
  Elagolix exposures (Cmax and AUC) in mild hepatic impairment: similar
mice
  Tumors in 2-year carcinogenicity study: no increase in tumors
Rats [5]; doses 50, 150, 300 mg/kg/day
  Effect in fertility study: no effect
Rats [5]; doses 600, 800 mg/kg/day
  Ovarian findings in repeat-dose study: involution and a decrease in corpora lutea in ovaries
monkeys
  Reproductive organ findings in repeat-dose study: reversible atrophy of reproductive organs (cervix, uterus and vagina)
Rats [6]; non-restricted feeding group, dams 400 mg/kg daily in diet
  Elagolix plasma concentrations in pups relative to the mother's plasma concentrations: approximately 1%
Rats [6]; rats, pup plasma as surrogate of exposure via lactation
  Secretion in milk: minimally secreted in milk
Rats [6]; restricted feeding litters, post natal day 10 and 20, dams 400 mg/kg daily in diet
  Elagolix plasma concentrations in pups: not measurable
[7]; 150 mg QD, Month 3, n/N 74/187, placebo 31.9
  Proportion of responders for Dyspareunia (Daily Endometriosis Pain Impact Scale): 39.6%
[7]; 150 mg QD, Month 3, n/N 115/248, placebo 19.6
  Proportion of responders for dysmenorrhea (Daily Endometriosis Pain Impact Scale): 46.4*** %
[7]; 150 mg QD, Month 3, n/N 125/248, placebo 36.5
  Proportion of responders for Non-Menstrual Pelvic Pain (Daily Endometriosis Pain Impact Scale): 50.4*** %
[7]; 150 mg QD, Month 6, n/N 74/187, placebo 33.3
  Proportion of responders for Dyspareunia (Daily Endometriosis Pain Impact Scale): 39.6%
[7]; 150 mg QD, Month 6, n/N 104/247, placebo 23.1
  Proportion of responders for dysmenorrhea (Daily Endometriosis Pain Impact Scale): 42.1*** %
[7]; 150 mg QD, Month 6, n/N 113/247, placebo 34.9
  Proportion of responders for Non-Menstrual Pelvic Pain (Daily Endometriosis Pain Impact Scale): 45.7** %
[7]; 200 mg BID, Month 3, n/N 81/172, placebo 31.9
  Proportion of responders for Dyspareunia (Daily Endometriosis Pain Impact Scale): 47.1*** %
[7]; 200 mg BID, Month 3, n/N 133/244, placebo 36.5
  Proportion of responders for Non-Menstrual Pelvic Pain (Daily Endometriosis Pain Impact Scale): 54.5*** %
[7]; 200 mg BID, Month 3, n/N 185/244, placebo 19.6
  Proportion of responders for dysmenorrhea (Daily Endometriosis Pain Impact Scale): 75.8*** %
[7]; 200 mg BID, Month 6, n/N 81/161, placebo 33.3
  Proportion of responders for Dyspareunia (Daily Endometriosis Pain Impact Scale): 50.3*** %
[7]; 200 mg BID, Month 6, n/N 151/243, placebo 34.9
  Proportion of responders for Non-Menstrual Pelvic Pain (Daily Endometriosis Pain Impact Scale): 62.1*** %
[7]; 200 mg BID, Month 6, n/N 183/243, placebo 23.1
  Proportion of responders for dysmenorrhea (Daily Endometriosis Pain Impact Scale): 75.3*** %
[7]; Study EM-I and its extension, Month 6 and Month 12
  Endometrial biopsy findings: no abnormal biopsy findings post-baseline

Source: patent publication US11690854B2, “Methods of treating heavy menstrual bleeding” (priority 2018, dated 2023)
